Patent publication US20210087337A1, “COMPOUNDS, COMPOSITIONS AND METHODS RELATED TO ANTIMICROBIAL APPLICATIONS” (VYOME THERAPEUTICS LIMITED, priority 2016, published 2021)
≈ marks a conversion by molar mass, not a printed value. Read-outs that look alike come from different tables or passages of the source.

Assays:
[1] = system: S. epidermidis ATCC 35984 biofilm; experiment: S. epidermidis biofilm disruption assay (MTT); type: cell-based; conditions: for EC50: Staphylococcus epidermidis, ATCC35984, read-out: Concentration (mg/ml) to disrupt 50% biofilm
Protocol: Materials: Brain heart infusion broth, S. epidermidis ATCC 35984, 96 well plates, Autoclave, Incubator, 0.05% MTT (3-(4,5-Dimethylthiazol-2-yl)-2,5-Diphenyltetrazolium Bromide) reagent prepared in water, Multiwell Plate Reader.
(§1) Method: S. epidermidis ATCC 35984 was grown in Brain Heart Infusion Agar (BHIA) at 37° C. for 24 h. The loop full of bacterial culture was suspended in sterile water and adjusted the turbidity to 0.1 OD at 600 nm in UV—Visual spectrophotometer (approximately 1.5×10^8) and further diluted (100 times with sterile BHI broth), 100 μL of culture suspension was added into 96 well plate and plates were incubated at 37° C. for 48 h for biofilm formation. The biofilm was washed twice with sterile water to remove the planktonic cells. Then biofilm was treated with 100 μL of BHI broth suspended with various concentrations of compounds of the present disclosure, and plates were further incubated at 37° C. for 24 h. The minimum biofilm disruption concentration (MBDC) was determined by staining the biofilm with MTT reagent incubated plates at 37° C. for 2 h. The precipitate was dissolved in 100 μl of dimethyl sulfoxide (DMSO) and the absorbance was measured at 600 nm in multi well plate reader. The minimum biofilm disruption concentration was calculated as subtracting the MTT OD value of drug treated with 48 h growth control.

[2] = system: E. coli ATCC BAA196 biofilm; experiment: E. coli biofilm disruption assay (MTT); type: cell-based; conditions: for Minimum biofilm disruption concentration: 24 h biofilm, 24 h treatment, MTT
Protocol: Materials: Brain heart infusion broth+1% glucose, Escherichia coli ATCC BAA196, 96 wells plate, Autoclave, Incubator, MTT, Multiwell Plate Reader.
(§2) Method: E. coli ATCC BAA196 was grown in Brain Heart Infusion Agar (BHIA) at 37° C. for 24 h. The loop full of bacterial culture was suspended in sterile water and the turbidity to 0.1 OD at 600 nm in UV—Visual spectrophotometer (approximately 1.5×10^8) and further diluted (100 times with sterile BHI broth+1% glucose), 100 μL of culture suspension was added into 96 well plate and plates were incubated at 37° C. for 24 h for biofilm formation. The biofilm was washed twice with sterile water to remove the planktonic cells. Then biofilm was treated with 100 μL of BHI broth+1% glucose suspended with various concentrations of compounds of the present disclosure, and plates were further incubated at 37° C. for 24 h. The minimum biofilm disruption concentration (MBDC) was determined by staining the biofilm with MTT reagent incubated plates at 37° C. for 2 h, and the precipitate was dissolved in 100 μl of dimethyl sulfoxide (DMSO) and the absorbance was measured at 600 nm in multi well plate reader. The minimum biofilm disruption concentration was calculated by subtracting the MTT OD value of drug treated with 24 h growth control.

[3] = system: biofilm formed by gram positive, gram negative pathogen; experiment: Biofilm disruption activity, general statement; type: cell-based; conditions: embodiment statement
Protocol: as §1, §2

S. epidermidis S12-1 = experiment: MIC by micro broth dilution (CLSI); type: cell-based; conditions: Staphylococcus epidermidis, S121
[4] = system: A. baumannii [ATCC 19606]; experiment: MIC by micro broth dilution (CLSI); type: cell-based
Protocol: (§3) Materials: Brain heart infusion broth, Bacterial and fungal cultures, 96 wells plate, Autoclave, Incubator. The microbial strains used in the validation study/testing were procured from MTCC (Chandigarh, India)—S. aureus (MTCC-6908), E. coli (MTCC-1687); NCIM (Pune, India)—E. aerogenes (NCIM-5139); ATCC (USA): S. aureus (ATCC-43300), S. epidermidis (ATCC-35984), P. aeruginosa (ATCC-27853), A. baumanii (ATCC-19606), K. pneumoniae (ATCC-13883), E. coli (ATCC-BAA196); CCARM (Korea)—Candida albicans (CCARM-14009), P. aeruginosa (CCARM-2161) and A. baumanii (CCARM-12001).
(§4) Method: MIC of present molecules were determined by micro broth dilution method as per the Clinical and Laboratory Standards Institute (CLSI) guidelines. Microbial strains were cultured in appropriate media [Brain Heart Infusion Agar (BHIA) for bacteria and Sabouraud dextrose broth (SDB) for Candida] at 37° C. for 24 hours. […] For inoculum, microbial culture turbidity was adjusted to 0.1 optical density (OD) at 600 nm in UV—Visual spectrophotometer (approximately 1.5×10^8 cells/ml) and further diluted (100 times with sterile media). Diluted culture suspension (100 μl) was added to each well except sterility control wells (column 12 of 96 well plate). Column 11 of 96 well plate was used as growth control and vehicle control. The plates were incubated at 37° C. for 24 h. The MIC of the test compounds were determined by observing the lowest concentration of test compound that prevented the visual bacterial growth.

[5] = system: Candida albicans (CCARM-14009); experiment: MIC by micro broth dilution (CLSI); type: cell-based; conditions: for MIC: C. albicans CCARM 14009
Protocol: as §3, §4

E. aerogenes (NCIM-5139) = experiment: MIC by micro broth dilution (CLSI); type: cell-based
Protocol: as §3, §4

E. coli (ATCC-BAA196) = experiment: MIC by micro broth dilution (CLSI); type: cell-based
Protocol: as §3, §4

E. coli (MTCC-1687) = experiment: MIC by micro broth dilution (CLSI); type: cell-based
Protocol: as §3, §4

[6] = system: K. pneumoniae [ATCC 1388]; experiment: MIC by micro broth dilution (CLSI); type: cell-based
Protocol: as §3, §4

[7] = system: P. aeruginosa (ATCC-27853); experiment: MIC by micro broth dilution (CLSI); type: cell-based
Protocol: as §3, §4

S. aureus (ATCC-43300) = experiment: MIC by micro broth dilution (CLSI); type: cell-based
Protocol: as §3, §4

S. aureus (MTCC-6908) = experiment: MIC by micro broth dilution (CLSI); type: cell-based
Protocol: as §3, §4

[8] = system: S. epidermidis (ATCC-35984); experiment: MIC by micro broth dilution (CLSI); type: cell-based
Protocol: as §3, §4

HaCat cell line = experiment: Cytotoxicity MTT assay; type: cell-based, human
Protocol: Different dilutions of compounds of the present disclosure in DMSO were used for the MTT assay so that the final concentration of DMSO in the assay was <5%. […] After 3 h incubation, MTT was removed and 100 μl of DMSO was added. Absorbance was measured in an ELISA reader at 570 nm. The assay controls were (a) medium control (medium without cells), (b) negative control (medium with cells but without the experimental compound), (iii) positive control (medium with cells and with 50 μM camptothecin). The experiment was done in triplicates and the data plotted as viability of cells in percentage.

MRSA = experiment: MIC test, text summary against MRSA; type: cell-based, S. aureus
Protocol: as §3
as §4, with “Column 11 of 96 well plate was used as growth control and vehicle control. The plates were incubated at 37° C. for 24 h.” left out

E. coli = experiment: MIC test, text summary against E. coli (strain not stated); type: cell-based
Protocol: as §3
as §4, with “Column 11 of 96 well plate was used as growth control and vehicle control. The plates were incubated at 37° C. for 24 h.” left out

[9] = system: Bacterial and fungal cultures; experiment: MIC test, overall antimicrobial activity in words; type: cell-based; conditions: overall statement on MIC results
Protocol: as §3
as §4, with “Column 11 of 96 well plate was used as growth control and vehicle control. The plates were incubated at 37° C. for 24 h.” left out

[10] = Water solubility as described; type: physicochemical
Gram positive pathogen = experiment: MIC test, text summary against Gram positive pathogens; type: cell-based
Protocol: as §3
as §4, with “Column 11 of 96 well plate was used as growth control and vehicle control. The plates were incubated at 37° C. for 24 h.” left out

Gram negative pathogens = experiment: MIC test, against Gram negative pathogens; type: cell-based
Protocol: as §3
as §4, with “Column 11 of 96 well plate was used as growth control and vehicle control. The plates were incubated at 37° C. for 24 h.” left out

[11] = 48 h biofilm, 24 h treatment, MTT
[12] = Candida albicans, CCARM14009, read-out: MIC
[13] = Staphylococcus aureus, MTCC6908, read-out: MIC
[14] = Staphylococcus epidermidis, ATCC35984, read-out: MIC

Question: Which results are given for `CCCCCCCCCCCCSC[C@H](NC(C)=O)C(=O)O` [SMP-001, N-Acetyl-S-dodecyl-L-cysteine]?
Answer: anti-biofilm activity against S. epidermidis [1]: destroy biofilm effectively; EC50 [1, 11]: 0.02 to 0.125 mg/mL (≈ 60.3 to 377 µM); Minimum biofilm disruption concentration [2]: 0.5 to 2.0 mg/mL; biofilm disruption activity [3]: biofilm disruption activity

Question: With `CCCCCCCCC/C=C\CCCCCCCCSC[C@@H](NC(C)=O)C(=O)N(CCCN)CCCN.Cl.Cl` [SMP-047, (S,Z)-2-Acetamido-N,N-bis(3-aminopropyl)-3-(nonadec-9-en-1-ylthio)propanamide di-hydrochloride] as the compound, how does the MIC (S. epidermidis S12-1) read?
Answer: 50 µg/mL

Question: And the MIC ([4]; Acinetobacter baumannii, ATCC19606, read-out: MIC)?
Answer: > 256 µg/mL

Question: And the “antifungal activity against Candida species” value [5]?
Answer: potent antifungal activity

Question: What about the MIC [5, 12] of the same compound?
Answer: 50 µg/mL

Question: What about the MIC (E. aerogenes (NCIM-5139); Klebsiella aerogenes, NCIM5139, read-out: MIC) of the same compound?
Answer: > 256 µg/mL

Question: What about the MIC (E. coli (ATCC-BAA196); Escherichia coli, ATCCBAA196, read-out: MIC) of the same compound?
Answer: 100 µg/mL

Question: And the MIC (E. coli (MTCC-1687); Escherichia coli, MTCC1687, read-out: MIC)?
Answer: 0.8 µg/mL

Question: And the MIC ([6]; Klebsiella pneumoniae, ATCC1388, read-out: MIC)?
Answer: > 256 µg/mL

Question: And the MIC ([7]; Pseudomonas aeruginosa, ATCC27853, read-out: MIC)?
Answer: > 256 µg/mL

Question: What about the MIC (S. aureus (ATCC-43300); Staphylococcus aureus, ATCC43300, read-out: MIC) of the same compound?
Answer: 6.25 µg/mL

Question: What about the MIC (S. aureus (MTCC-6908); [13]) of the same compound?
Answer: 6.25 µg/mL

Question: And the MIC [8, 14]?
Answer: 6.25 µg/mL

Question: What about the EC50 [1, 11] of the same compound?
Answer: > 2 mg/mL

Question: And the IC50 (HaCat cell line; Homo sapiens, HaCaT, 48 h, MTT)?
Answer: 200 to 400 µg/mL

Question: What about the “safety profile in HaCaT cell lines” value (HaCat cell line; compared with PHMB and chlorohexidine) of the same compound?
Answer: better safety profile

Question: What about the “antibacterial activity against MRSA” value (MRSA) of the same compound?
Answer: potent antibacterial activity

Question: And the “activity towards resistant E. coli” value (E. coli)?
Answer: potent

Question: And the “antimicrobial / antibacterial activity” value [9]?
Answer: broad spectrum antibacterial activity

Question: What about the “biofilm disruption activity” value [3] of the same compound?
Answer: biofilm disruption activity

Question: What about the “water solubility” value [10] of the same compound?
Answer: water soluble

Question: Which “IC50 in HaCat cell line” value (HaCat cell line; 48 h, MTT) does the source give for `N=C(NCCCCCCNC(=N)NC(=N)Nc1ccc(Cl)cc1)NC(=N)Nc1ccc(Cl)cc1` [Chlorohexidine, reference compound] here?
Answer: ~200 µg/mL (≈ 396 µM)

Question: With `CCCCCCCCCCCCSC[C@@H](NC(C)=O)C(=O)N(CCCCNC(=O)[C@@H](N)CNC(=N)N)CCCNC(=O)[C@@H](N)CNC(=N)N.Cl` [SMP-051] as the compound, how does the MIC [4] read?
Answer: 128.0 µg/mL

Question: What about the MIC [5] of the same compound?
Answer: 200 µg/mL

Question: And the MIC (E. aerogenes (NCIM-5139))?
Answer: 8.0 µg/mL

Question: And the MIC (E. coli (ATCC-BAA196))?
Answer: 100 µg/mL

Question: What about the MIC (E. coli (MTCC-1687)) of the same compound?
Answer: 1.6 µg/mL

Question: And the MIC [6]?
Answer: 8.0 µg/mL

Question: And the MIC [7]?
Answer: 16.0 µg/mL

Question: And the MIC (S. aureus (ATCC-43300))?
Answer: 6.25 µg/mL

Question: What about the MIC (S. aureus (MTCC-6908)) of the same compound?
Answer: 6.25 µg/mL

Question: And the MIC [8]?
Answer: 1.6 µg/mL

Question: What about the “Concentration (mg/ml) to disrupt 50% biofilm” value [1, 11] of the same compound?
Answer: >2 mg/mL

Question: What about the “disruption of E. coli biofilm” value [2] of the same compound?
Answer: the best

Question: And the “Minimum biofilm disruption concentration” value [2]?
Answer: 0.25 to 0.5 mg/mL

Question: What about the “IC50 in HaCat cell line” value (HaCat cell line; 48 h, MTT) of the same compound?
Answer: ~25.0 µg/mL

Question: What about the “improvement of antibacterial activity in comparison to SMP-002” value (Gram positive pathogen) of the same compound?
Answer: 10-20 fold

Question: And the “activity against Gram negative pathogens” value (Gram negative pathogens)?
Answer: very efficient

Question: What about the “improvement of antibacterial activity in comparison to SMP-002” value (Gram negative pathogens; against Gram negative pathogen) of the same compound?
Answer: 100-150 fold

Question: What about the “antimicrobial / antibacterial activity” value [9] of the same compound?
Answer: broad spectrum antibacterial activity

Question: What about the “biofilm disruption activity” value [3] of the same compound?
Answer: biofilm disruption activity

Question: Which results are given for `CCCCCCCCCCCCSC[C@@H](NC(C)=O)C(=O)N(CCCN)CCCN.Cl.Cl` [SMP-002, (S)-2-Acetamido-N,N-bis(3-aminopropyl)-3-(dodecylthio)propanamide di-hydrochloride]?
Answer: MIC (S. epidermidis S12-1): 25 µg/mL; MIC [5, 12]: 100 µg/mL; MIC (S. aureus (MTCC-6908); [13]): 25 µg/mL; MIC [8, 14]: 8 to 13 µg/mL; anti-biofilm activity against S. epidermidis [1]: maintain anti-biofilm activity like SMP-001; EC50 [1, 11]: 0.01 mg/mL; Minimum biofilm disruption concentration [2]: 2 to 4 mg/mL; biofilm disruption activity [3]: biofilm disruption activity

Question: With `CC(=O)N[C@@H](CS)C(=O)O` [NAC, N-acetyl cysteine, reference compound] as the compound, how does the EC50 [1, 11] read?
Answer: > 4 mg/mL
